Laboratory results published in US20080139623A1, “Amorphous and crystalline forms of pantoprazole magnesium salt” (priority 2006, published 2008).

Experiments:
Type in all cases: physicochemical
[1] = Solubility in water at 25° C. (saturated solution, HPLC assay); conditions: for solubility: in water at 25° C.
Procedure: The solubilities of amorphous pantoprazole magnesium and pantoprazole magnesium Form A were each measured in water at 25° C. The certain amount of amorphous sample and form A sample were added each to 50 ml of distillated water. The solutions were kept saturated during the experiment. The aliquots were taken, filtered and injected into HPLC by the method of assay determination for PNT-Mg and the concentrations were calculated by comparison of absorptions at certain wavelength against the known concentration of PNT-Mg standard.

[2] = Analysis of particle size by light microscope in light oil
From the text: Samples of crystalline pantoprazole magnesium Forms A (prepared according to example 15), E, F, G, and H were each analyzed by light microscope in light oil. The results are depicted in FIGS. 29-33, respectively.

[3] = Stability of crystalline form under heating (100° C., two weeks, PXRD); conditions: heated at 100° C. for two weeks, analyzed by PXRD
Procedure: The powder X-ray diffraction was performed on Scintag X-ray powder diffractometer model X'TRA with a solid state detector. Copper radiation of 1.5418 Å was used. The sample holder was a round standard aluminum sample holder with rough zero background. The scanning parameters were range: 2-40 degrees two-theta; scan mode: continuous scan; step size: 0.05 deg.; and at a rate of 5 deg/min.
Samples of crystalline pantoprazole magnesium Form C and Form A (prepared according to example 15) were each heated at 100° C. for two weeks. The samples were then analyzed by PXRD.

| Substance | particle shape / description [2] | particle size [2] | further results |
| --- | --- | --- | --- |
| 5-difluoromethoxy-2-[[3,4-dimethoxy-2-pyridinyl)methyl]sulfinyl]-1H-benzimidazole magnesium salt [Form A, reference compound] | plate-shaped particles | less than 50 microns | solubility [1]: about 0.2 mg/ml; crystalline form after heating (polymorphic stability) [3]: transformed to amorphous form |
| 5-difluoromethoxy-2-[[3,4-dimethoxy-2-pyridinyl)methyl]sulfinyl]-1H-benzimidazole magnesium salt [Form C] | – | – | crystalline form after heating (polymorphic stability) [3]: maintained its crystalline form |
| 5-difluoromethoxy-2-[[3,4-dimethoxy-2-pyridinyl)methyl]sulfinyl]-1H-benzimidazole magnesium salt [Form E] | plate-shaped particles | less than 20 microns | – |
| 5-difluoromethoxy-2-[[3,4-dimethoxy-2-pyridinyl)methyl]sulfinyl]-1H-benzimidazole magnesium salt [Form F] | spherical particles | – | – |
| 5-difluoromethoxy-2-[[3,4-dimethoxy-2-pyridinyl)methyl]sulfinyl]-1H-benzimidazole magnesium salt [Form G] | – | less than 10 microns | – |
| 5-difluoromethoxy-2-[[3,4-dimethoxy-2-pyridinyl)methyl]sulfinyl]-1H-benzimidazole magnesium salt [Form H] | very small particles | – | – |
| 5-difluoromethoxy-2-[[3,4-dimethoxy-2-pyridinyl)methyl]sulfinyl]-1H-benzimidazole magnesium salt [amorphous pantoprazole magnesium] | – | – | solubility [1]: about 1.3 mg/ml; solubility in water relative to crystalline Form A ([1]; in water, amorphous form versus Form A prepared according to the '464 patent): approximately 6.5 times |
